Literature values as cited in patent US10561602B2 (priority 2015, dated 2020).

Experiments:
[1] = n-octanol/0.05 M phosphate buffer at pH 7.4
[2] = water and both basic and acidic aqueous solutions

In the case of `CC(C)C[C@H](CN)CC(=O)O` [Pregabalin, (S)-3-(aminomethyl)-5-methylhexanoic acid], the “log of the partition coefficient” value [1] is listed as “about −1.35” and the solubility [2] is listed as “freely soluble”.
